From patent publication US12721863B2, “Treatment for down syndrome-related accelerated aging” (The Texas A&M University System, priority 2021, dated 2026)

Experiments:
Nrf2 = Nrf2 Western blot in bEnd.3 cells; type: cell-based, mouse; conditions: lipoic acid 1 mM alone; FIG. 9
Procedure: Culture of bEnd.3 Cells for Nrf2 Study—Mouse brain endothelial (b.End3) cells are grown and maintained in DMEM supplemented with 10% fetal bovine serum and 1% penicillin streptomycin. Once cells reach 90% confluence, cells are split in a 1-to-5 ratio.
Treatment of bEnd.3 Cells for Nrf2 Study—b.End3 cells are seeded on 10-cm petri dishes. On day 4, half of the old media is discarded and replaced with fresh media.
Nrf2 Western blotting—Cell extraction is performed using Cell Lysis Buffer and the provided protocol (ThermoFisher #FNN0011). Proteins are quantified using Bradford assay (Thermofisher #1863028). Same amounts of proteins of each lysate (20 μg) are loaded on an SDS-PAGE gel under reducing conditions (unless stated otherwise). Membrane transfer is done overnight (about 18 hours) in cold room and blocked with 5% dry milk/TBST the next day. Subsequently, the membrane is incubated with primary antibodies overnight (about 18 hours) and with secondary antibodies for an hour in blocking solution. Signals are developed with ECL (ThermoFisher #A43840) and captured with ChemiDoc™ Imaging System.

DS lymphocytes = test: AP39 challenge of DS lymphocytes; type: cell-based, human; conditions: DS cells; 5 μM AP39; p<0.05; FIG. 10
Source text: (§1) Age-matched and sex-matched DS-donor and apparently healthy individual (AHI) lymphocytes (Coriell Institute, Camden, NJ) are used as a human model of DS.

AHI lymphocytes = test: AP39 challenge of AHI lymphocytes; type: cell-based, human; conditions: AHI cells; 5 μM AP39; p<0.05; FIG. 10
Source text: as §1

## O=C(O)CCCC[C@@H]1CCSS1 (racemic) [lipoic acid]
Nrf2
  Nrf2 signal (Western blot): some small increases in signal

## O=C(CCCCCCCCC[P+](c1ccccc1)(c1ccccc1)c1ccccc1)Oc1ccc(-c2cc(=S)ss2)cc1.[Br-] [AP39]
DS lymphocytes
  cell proliferation: reduced
  viability versus untreated control: significant reduction in viability
AHI lymphocytes
  cell proliferation: reduced
